First: Cc1cc(C)cc(-c2nc(N)sc2-c2ccnc(NC(=O)c3ccccc3)c2)c1
Second: Cc1c(C)c2ccc(OCCCN3CCC(NC(=O)c4ccccc4)CC3)cc2oc1=O
The melting point of the first is lower: 120 to 123 °C for the first, 201 to 203 °C for the second.

Compared with `CCCCC1=CC(=C(Br)Br)OC1=O`, `CC(C)C(C(=O)OCc1nn(Cc2ccccc2)c(=O)o1)c1ccc(Cl)cc1` (configuration not stated) is higher in melting point: 48 to 49 °C for the first, 70 °C for the second.

First: O=C1CCc2c(Br)cc([N+](=O)[O-])c(O)c21
Second: O=C(O)c1cccc2c1CCc1ccc(F)cc1S2
The melting point of the first is lower: 149 to 151 °C for the first, 209 to 211 °C for the second.

First: CCC(C)N(C)C(=O)c1cc2ccsc2c(-c2ccccc2)n1 (configuration not stated)
Second: CN(C)C(=O)c1c2ccc(Cl)cc2c(-c2ccccc2)n1C
The melting point of the first is higher: 117 °C for the first, 86 to 88 °C for the second.

Compared with `CC(CNc1ccc(Cl)cc1[N+](=O)[O-])SC#N` (configuration not stated), `O=[N+]([O-])c1ccc(F)cc1CS(=O)(=O)c1ccccc1` is higher in melting point: 69 to 70 °C for the first, 169 to 171 °C for the second.

First: COC(=O)c1ccc(Cn2ncc3ccc(NC(=O)OC4CCCC4)cc32)c(OC)c1
Second: CCCCCOC(=O)Nc1ccc(CN2C(=O)CCc3c(CC4SC(=O)NC4=O)ccc(OC)c32)cc1 (configuration not stated)
The melting point of the first is higher: 150 to 151 °C for the first, 98 to 102 °C for the second.

`O=c1[nH]c(C2CCNCC2)nc2ccccc12` and `CN1CCN(c2ccc3[nH]c(=O)c(-c4csc(-c5ccncc5)n4)c(N)c3c2)CC1` cannot be ordered by melting point: 244 to 245 °C for the first, greater than 220 °C for the second.

First: C#Cc1cn(-c2c(Cl)cc(OC(F)(F)F)cc2Cl)nc1C#N
Second: Nc1nc2ccccc2c2c1ncn2CCOCC#Cc1ccccc1C(F)(F)F
The melting point of the first is lower: 95.2 to 96 °C for the first, 154 to 155 °C for the second.

First: O=C(NC1CCS(=O)(=O)CC1)NC12CC3CC(CC(C3)C1)C2
Second: C[C@]12CC[C@@H]3C4=C(CC[C@H]3[C@@H]1CCC21CC(O)CO1)CC(=O)CC4 (some centres not stated)
The melting point of the first is higher: 244 to 246 °C for the first, 118 to 123 °C for the second.

First: COC(=O)c1ccccc1Sc1cc(C=O)ccc1OC
Second: COc1cc(C=O)ccc1OCc1coc(-c2ccco2)n1
The melting point of the first is lower: 99 to 104 °C for the first, 138 to 139 °C for the second.

First: CC(=O)OC1OCC[C@@H]1NC(=O)[C@H](CC(C)C)NC(=O)[C@H](CC(C)C)NC(=O)c1ccc2c(c1)Nc1ccccc1S2 (some centres not stated)
Second: COc1ccc(C(=O)Nc2ccccc2)cc1NS(=O)(=O)c1cccc([N+](=O)[O-])c1
The melting point of the first is lower: 121 to 122 °C for the first, 208 to 210 °C for the second.

First: COc1cc2c3c([nH]c2c(Cl)c1Cl)C(=O)NCC3
Second: CC1Oc2cc(C3=NNC(=O)CC3)ccc2NC1=O (configuration not stated)
The melting point of the first is lower: 263 to 264 °C for the first, 294 to 295 °C for the second.

First: CC(C)[C@@H]1C[C@@H](CO)NC1=O
Second: O=C(O)[C@@H]1CCCN1C(=O)C1CCC1S (some centres not stated)
The melting point of the first is lower: 55.9 °C for the first, 145 to 146 °C for the second.

First: CCCn1nc(C2CC2)c(C(=O)O)c1Cc1ccc(-c2ccccc2S(=O)(=O)NC(=O)c2ccccc2)cc1
Second: CCCC(=O)Oc1c(-c2ccc(-c3ccccc3)cc2)nc2ccccc2c1C(=O)O
The melting point of the first is higher: 230 to 232 °C for the first, 195 to 196 °C for the second.

Compared with `COc1ccccc1C(C)C(Sc1ccc(C(=O)O)cc1)n1ccnc1` (configuration not stated), `CN(C)C(=O)Sc1ccc(C(=O)c2cccc(C#N)c2)cc1` is higher in melting point: 118 to 124 °C for the first, 150 °C for the second.

Compared with `c1ccc2c(c1)c1c(N3CCCC3)nc(N3CCCC3)nc1n2CCN1CCOCC1`, `c1cc2nc3c(n2nc1N1CCCC1)CCCC3` is higher in melting point: 138 to 139 °C for the first, 161 °C for the second.

First: CCN(CC)C(=O)c1ccc(Cl)c(C2(C)C(=O)N(Cc3ccc(OC)cc3OC)c3ccc(Cl)cc32)c1 (configuration not stated)
Second: CCCN(CCC)C(=O)Cn1c(=O)[nH]c2cnc(-c3ccc(Cl)cc3)nc21
The melting point of the first is lower: 86 °C for the first, 177 to 178 °C for the second.

Compared with `COc1cc(Oc2ccc(S(C)(=O)=O)nc2)cc2cc(C3=NCC(CC(=O)NC[C@H](C)O)S3)[nH]c12` (some centres not stated), `OCc1csc(Nc2ccc(Oc3ccccc3)cn2)n1` is lower in melting point: 185 to 186 °C for the first, 130 to 131 °C for the second.

Compared with `CCOC(=O)c1cn(-c2nc(F)c(F)c(NC(C)(C)C)c2F)c2c(Cl)c(F)c(F)cc2c1=O`, `CON=C1CN(c2c(F)c(N)c3c(=O)c(C(=O)O)cn(C4CC4)c3c2F)CC12CN(C(=O)OC(C)(C)C)C2` is higher in melting point: 145 to 146 °C for the first, 256 to 257 °C for the second.

First: Oc1ccc2nc(-c3cccc(Cl)c3)oc2c1
Second: CC(C)Oc1ccc2c(=O)c3ccc(O)cc3oc2c1
The melting point of the first is lower: 246 to 248 °C for the first, 268 to 281 °C for the second.

First: O=c1oc2ccc(-c3ccc(F)cc3F)cc2c(=O)n1-c1ccccc1C(F)(F)F
Second: Nc1ccccc1Oc1ccc2c(c1)C(=O)NC2=O
The melting point of the first is lower: 200 to 201 °C for the first, 212 °C for the second.

Compared with `CCOC(=O)C1C(C#N)C1(C)C` (configuration not stated), `N#CCNC(=O)c1ccco1` is higher in melting point: 69 °C for the first, 85 to 93 °C for the second.

First: Cc1cc2c(cc1S(=O)(=O)c1ccc(Cl)cc1)OC(C(=O)O)O2 (configuration not stated)
Second: CS(=O)(=O)c1ccc(-c2cccn2-c2ccc(Cl)cc2)cc1
The melting point of the first is lower: 169 to 171 °C for the first, 184 to 188 °C for the second.

First: CON=Cc1c(S(N)(=O)=O)ccn1C
Second: CCC(O)c1cc2c(=O)n(NS(C)(=O)=O)c(=O)[nH]c2cc1C(F)(F)F (configuration not stated)
The melting point of the first is lower: 120 to 122 °C for the first, 219 to 222 °C for the second.

First: CC(SC1COC(c2ccc(C(=O)Nc3ccc(C#N)c(Cl)c3)cc2)OC1)C(O)(Cn1cncn1)c1ccc(F)cc1F (configuration not stated)
Second: CCOCCSC(F)(F)C(O)(Cn1cncn1)c1ccc(F)cc1F (configuration not stated)
The melting point of the first is higher: 115 °C for the first, 61 to 63 °C for the second.

First: CCOC(=O)N=C(NC(=O)Nc1ccc(C)cc1)SCC
Second: Cc1ccc(C(=O)Nc2c[nH]nc2C(=O)NCCOC(C)C)cn1
The melting point of the first is lower: 110 to 112 °C for the first, 168 to 169 °C for the second.

Compared with `Oc1c2c(nn1-c1ccccn1)CCCc1ccccc1-2`, `COC(=O)c1ccc(N=Cc2ccccc2)cn1` is higher in melting point: 80 to 81 °C for the first, 84 to 89 °C for the second.

First: CCc1cccc(C)c1CNc1cc(C(=O)O)cc2c1nc(C)n2C
Second: Cc1cnc(CCCCNc2ncc(Cc3ccc(C)nc3)c(=O)[nH]2)c(Br)c1
The melting point of the first is higher: 312 to 314 °C for the first, 148 to 151 °C for the second.

First: COC(=O)c1cncn1C1c2ccccc2C(=O)C1(C)C (configuration not stated)
Second: COC(=O)COc1ccc(C(=O)c2ccccc2)c(O)c1
The melting point of the first is lower: 104 to 108 °C for the first, 131 to 134 °C for the second.

Compared with `CC(C)(CO)Oc1ccc2c(c1)CCc1c-2ccc2c1CCC2(C)C`, `COc1ccc(-c2ccc(Br)c3ccsc23)cc1` is lower in melting point: 122 to 125 °C for the first, 103 to 104 °C for the second.

First: CS(=O)(=O)Nc1ccc(OCCCN2CCC(OC(c3ccccc3)c3ccccc3)CC2)cc1
Second: O=C1NC(=O)C(=Cc2ccc(S(=O)(=O)CCCc3ccccc3)cc2)S1
The melting point of the first is lower: 41 to 43 °C for the first, 224 to 225 °C for the second.

Going from `ClC(Cl)(Cl)c1nnc(Br)s1` to `OCc1c(Br)c(Br)c(CO)c(Br)c1Br`, the melting point rises from 39 °C to 248 °C.

First: CC(C)(C#N)c1cc(Cn2cnnc2)cc(C(C)(C)C#N)c1
Second: Cc1nc2cc(-c3ccnc(-c4cn(C)c(=O)n4-c4ccc(C(C)(C)C#N)cc4)c3)cnc2[nH]1
The melting point of the first is lower: 158 to 161 °C for the first, 288 °C for the second.

First: CC1(C(=O)O)COC2(CC3CCC2(C)C3(C)C)OC1 (configuration not stated)
Second: CNC1([C@@H]2CCN(c3ccc4c(=O)c(C(=O)O)cn([C@@H]5C[C@@H]5F)c4c3OC)C2)CC1
The melting point of the first is lower: 172 to 175 °C for the first, 213 to 215 °C for the second.

First: CCCC1=C(C#N)C(c2ccccc2Cl)c2c(n[nH]c2C(C)C)N1 (configuration not stated)
Second: Cc1cc(Cl)cc(COc2cccc(OCc3ccc4ccccc4n3)c2)c1OCc1nnn[nH]1
The melting point of the first is higher: greater than 270 °C for the first, 181 to 184 °C for the second.

Compared with `CCCCCCCCCCCCCCCCNc1ccc(C#N)cc1`, `O=C(c1ccc(O)nc1)N1CCN=C1Nc1c(Cl)cccc1Cl` is higher in melting point: 63 to 64 °C for the first, 256 to 258 °C for the second.
